Measured values reported in paper PMC4456249 (Structure (London, England : 1993), 2015).

B1: E66S CCL5 (natural protein)
chain: MSPYSSDTTPCCFAYIARPLPRAHIKEYFYTSGKCSNPAVVFVTRKNRQVCANPEKKWVREYINSLSMS

Tests used:
CCL5 = conditions: ref Mizumoto et al., 2013; cited from earlier work
NMR = target: the molecule itself; test: NMR

| Molecule | Affinity for CCL5 (CCL5) | ratio of dimer-to-monomer (30 uM, 40 °C, without CS444) (NMR) | stoichiometry N (NMR) |
| --- | --- | --- | --- |
| chondroitin sulfate [CS] | submicromolar affinities |  |  |
| dermatan sulfate [DS] | submicromolar affinities |  |  |
| B1 |  | ~1 | 2 |
